Measurements from article PMC10877733, “Discovery and Characterization of VU0542270, the First Selective Inhibitor of Vascular Kir6.1/SUR2B KATP Channels” (Molecular Pharmacology, 2024).
“Also recorded” adds a separate entry of the source.

How the values were obtained:
Type in all cases: cell-based
Kir1.1 = biological target: T1, Kir1.1 (Homo sapiens, UniProt P48048); assay: Thallium flux selectivity assay Kir1.1
T1 construct: expressed in transfected cells
T1 sequence (P48048 1-391): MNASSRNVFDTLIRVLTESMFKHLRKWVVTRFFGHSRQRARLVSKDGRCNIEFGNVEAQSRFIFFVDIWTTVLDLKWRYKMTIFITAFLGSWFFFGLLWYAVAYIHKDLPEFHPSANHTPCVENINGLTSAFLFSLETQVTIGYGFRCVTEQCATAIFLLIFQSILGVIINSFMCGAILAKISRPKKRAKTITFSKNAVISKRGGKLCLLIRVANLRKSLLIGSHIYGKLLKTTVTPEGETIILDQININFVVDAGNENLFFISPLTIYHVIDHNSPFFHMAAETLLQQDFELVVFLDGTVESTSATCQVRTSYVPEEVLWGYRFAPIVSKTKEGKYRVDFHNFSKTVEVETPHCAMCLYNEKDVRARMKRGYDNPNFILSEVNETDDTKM
Description: (§1) Quantitative thallium flux assays of Kir6.1/SUR2B activity were performed essentially as described previously for Kir6.2/SUR1 ([Raphemot et al., 2014]; [Kharade et al., 2019]). Stable T-Rex-HEK293-Kir6.1/SUR2B cells or transiently transfected HEK293T cells were plated in polyamine-coated, clear-bottomed, black-walled 384-well plates and were cultured (37°C/5% CO2) overnight in Dulbecco’s modified Eagle’s medium (Gibco, Carlsbad, CA, 11995-065) containing 10% FBS (2 mM Penicillin-Streptomycin). The following day, cells were washed with assay buffer (i.e., Hanks’ balanced salt solution/20 mM HEPES) and loaded for 1 hour with thallium sensor dye Brilliant Thallium (Ion Bioscience, San Marcos, TX) at room temperature. Dye-loaded cells were washed with assay buffer and transferred to a Panoptic Kinetic Imaging Plate Reader (Wavefront Bioscience, Franklin, TN). Control and test compound treatments were for 4 minutes prior to adding 0.5 mM chloride-free thallium stimulus buffer (Ion Bioscience) to initiate thallium flux. […] Selectivity assays against other Kir channels were performed essentially as described previously ([Kharade et al., 2018]; [McClenahan et al., 2022]).

Kir6.2/SUR1 = biological target: T2, Kir6.2/SUR1 (Homo sapiens, UniProt Q09428); assay: Thallium flux assay of Kir6.2/SUR1 in HEK293 cells
T2 construct: expressed in transfected cells; also transiently transfected HEK293T
T2 sequence (Q09428 whole entry, species assumed): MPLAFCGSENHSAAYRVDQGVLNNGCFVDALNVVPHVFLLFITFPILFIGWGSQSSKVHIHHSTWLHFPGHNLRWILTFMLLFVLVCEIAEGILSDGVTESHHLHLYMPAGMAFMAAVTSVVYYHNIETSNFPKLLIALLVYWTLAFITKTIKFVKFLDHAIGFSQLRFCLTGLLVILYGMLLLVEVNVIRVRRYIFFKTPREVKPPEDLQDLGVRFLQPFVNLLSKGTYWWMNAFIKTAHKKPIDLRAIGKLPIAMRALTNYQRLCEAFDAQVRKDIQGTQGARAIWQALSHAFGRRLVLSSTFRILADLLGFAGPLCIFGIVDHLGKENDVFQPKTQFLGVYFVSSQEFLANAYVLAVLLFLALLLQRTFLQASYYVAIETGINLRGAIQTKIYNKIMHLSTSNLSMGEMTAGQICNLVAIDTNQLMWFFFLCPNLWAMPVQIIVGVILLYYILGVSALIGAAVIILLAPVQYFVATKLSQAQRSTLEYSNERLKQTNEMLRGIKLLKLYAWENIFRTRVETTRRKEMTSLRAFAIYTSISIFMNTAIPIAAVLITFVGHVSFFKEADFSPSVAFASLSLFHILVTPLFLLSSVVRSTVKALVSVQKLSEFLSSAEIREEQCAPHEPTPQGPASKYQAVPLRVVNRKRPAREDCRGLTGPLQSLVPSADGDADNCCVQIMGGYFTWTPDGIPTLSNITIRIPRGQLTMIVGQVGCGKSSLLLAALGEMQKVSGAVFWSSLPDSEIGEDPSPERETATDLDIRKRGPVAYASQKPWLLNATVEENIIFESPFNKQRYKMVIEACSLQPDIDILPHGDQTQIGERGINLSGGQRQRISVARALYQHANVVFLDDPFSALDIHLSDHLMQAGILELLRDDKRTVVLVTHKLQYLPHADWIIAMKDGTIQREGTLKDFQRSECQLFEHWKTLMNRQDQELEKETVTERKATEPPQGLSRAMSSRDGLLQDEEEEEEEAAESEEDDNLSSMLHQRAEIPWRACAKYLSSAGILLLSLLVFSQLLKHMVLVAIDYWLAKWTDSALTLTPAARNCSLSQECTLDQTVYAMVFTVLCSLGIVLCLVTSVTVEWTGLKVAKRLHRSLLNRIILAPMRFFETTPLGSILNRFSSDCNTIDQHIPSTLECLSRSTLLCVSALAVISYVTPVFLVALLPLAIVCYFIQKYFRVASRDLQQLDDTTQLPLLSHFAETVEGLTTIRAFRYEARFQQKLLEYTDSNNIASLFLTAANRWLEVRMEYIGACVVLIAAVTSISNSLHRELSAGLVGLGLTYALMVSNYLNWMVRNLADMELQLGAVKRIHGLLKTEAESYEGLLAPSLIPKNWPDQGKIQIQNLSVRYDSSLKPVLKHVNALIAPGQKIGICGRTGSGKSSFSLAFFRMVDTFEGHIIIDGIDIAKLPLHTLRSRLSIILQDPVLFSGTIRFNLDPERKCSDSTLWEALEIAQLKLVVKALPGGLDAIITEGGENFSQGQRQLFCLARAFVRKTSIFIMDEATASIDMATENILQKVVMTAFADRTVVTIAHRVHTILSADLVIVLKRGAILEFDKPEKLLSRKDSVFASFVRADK
T2 sequence (Q14654 whole entry partner, species assumed): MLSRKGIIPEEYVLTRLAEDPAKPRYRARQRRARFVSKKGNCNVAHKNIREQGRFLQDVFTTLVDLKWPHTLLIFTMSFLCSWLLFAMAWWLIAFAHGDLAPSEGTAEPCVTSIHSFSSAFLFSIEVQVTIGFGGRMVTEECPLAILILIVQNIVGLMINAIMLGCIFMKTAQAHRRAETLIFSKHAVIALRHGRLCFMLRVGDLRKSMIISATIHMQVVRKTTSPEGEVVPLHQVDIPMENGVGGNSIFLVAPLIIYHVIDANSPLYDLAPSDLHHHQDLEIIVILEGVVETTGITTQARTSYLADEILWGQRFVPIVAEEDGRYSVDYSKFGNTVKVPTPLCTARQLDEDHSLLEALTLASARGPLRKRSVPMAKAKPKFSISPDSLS
Description: The pcDNA3.1-SUR2B plasmid was generously provided by Dr. Colin Nichols (Washington University). The pcDNA5/TO-Kir6.1 plasmid was synthesized by GenScript. […] For selectivity assays, HEK293T cells were cotransfected with Kir6.x and SURX with Lipofectamine LTX and incubated for 48 hours before thallium flux assays.
Stable T-Rex-HEK293-Kir6.1/SUR2B cells or transiently transfected HEK293T cells were plated in polyamine-coated, clear-bottomed, black-walled 384-well plates and were cultured (37°C/5% CO2) overnight in Dulbecco’s modified Eagle’s medium (Gibco, Carlsbad, CA, 11995-065) containing 10% FBS (2 mM Penicillin-Streptomycin). The following day, cells were washed with assay buffer (i.e., Hanks’ balanced salt solution/20 mM HEPES) and loaded for 1 hour with thallium sensor dye Brilliant Thallium (Ion Bioscience, San Marcos, TX) at room temperature. Dye-loaded cells were washed with assay buffer and transferred to a Panoptic Kinetic Imaging Plate Reader (Wavefront Bioscience, Franklin, TN). Control and test compound treatments were for 4 minutes prior to adding 0.5 mM chloride-free thallium stimulus buffer (Ion Bioscience) to initiate thallium flux.

Kir2.3 = biological target: T3, Kir2.3 (Homo sapiens, UniProt P48050); assay: Thallium flux selectivity assay Kir2.3
T3 construct: expressed in transfected cells
T3 sequence (P48050 1-445): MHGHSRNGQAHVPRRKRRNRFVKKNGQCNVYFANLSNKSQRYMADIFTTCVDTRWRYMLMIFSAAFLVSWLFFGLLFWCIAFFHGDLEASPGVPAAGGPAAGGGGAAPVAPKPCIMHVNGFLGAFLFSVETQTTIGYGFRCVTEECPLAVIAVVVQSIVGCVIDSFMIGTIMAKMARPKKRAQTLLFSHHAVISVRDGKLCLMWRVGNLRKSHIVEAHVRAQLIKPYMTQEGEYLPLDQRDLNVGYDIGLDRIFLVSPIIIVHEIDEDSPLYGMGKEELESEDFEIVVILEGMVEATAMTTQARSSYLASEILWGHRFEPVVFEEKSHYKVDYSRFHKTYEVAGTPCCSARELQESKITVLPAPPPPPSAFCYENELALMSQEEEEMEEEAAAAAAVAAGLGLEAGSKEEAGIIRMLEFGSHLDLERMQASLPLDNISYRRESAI
Description: as §1

For `Cc1nc(-c2cccs2)sc1CNC(=O)Nc1cccs1` [VU0542270], the IC50 (Kir1.1) was over 30 µM, the “activity toward Kir6.2/SUR1” value (Kir6.2/SUR1; doses up to 30 µM) was “no apparent activity” and the IC50 (Kir6.2/SUR1; thallium flux, Table 1 selectivity profile) was over 30 µM. For the same molecule, the “Kir6.2/SUR1 IC50, ATP depletion” value (Kir6.2/SUR1; thallium flux, transfected HEK-293 cells, channels activated by metabolic inhibition (ATP depletion) (Fig. 4B)) was “failed to inhibit; also recorded: no fit”, the “Kir6.2/SUR1 IC50, VU0071063 activation” value (Kir6.2/SUR1; thallium flux, transfected HEK-293 cells, channels activated with VU0071063 (Fig. 4A)) was “failed to inhibit; also recorded: no fit” and the IC50 (Kir2.3) was over 30 µM.
